# Experimental data taken from US20250064907A1, “THERAPEUTIC VACCINES FOR TREATMENT OF CHRONIC INFLAMMATORY DISEASES” (ATHEROVAX, LLC, priority 2023, published 2025).
# Entries after “also recorded” stand apart in the source; their conditions may differ. Where no end group is shown, it is not given here.
# What was measured:
# [1] = Blood coagulation parameters after inferior vena cava ligation; assay type: in vivo, Lewis rats; conditions: across doses, result in words
# Experimental: (§1) Adult Lewis rats weighing 200-250 g were randomly distributed into three treatment groups with 4 male and 4 female rats in each group. Group 1 received 1.0 mL saline subcutaneously on days 0 and 14. Group 2 received 1.0 mL saline with 0.025 mg AtheroVax peptide (SEQ ID NO: 18) and 0.025 mg aluminum hydroxide adjuvant on days 0 and 14. Group 3 received 1.0 mL saline with 0.075 mg AtheroVax peptide (SEQ ID NO: 18) and 0.075 mg aluminum hydroxide adjuvant on days 0 and 14. […] The abdominal cavity was sutured immediately after the ligation. The rats were euthanized 4 hours after dressing.
# (§2) The thrombus was removed from the rats and wet weight determined. In addition, blood was recovered from the rats and coagulation parameters prothrombin time (PT), thrombin time (TT), and fibrinogen were measured.
# (§3) Statistical analysis of mean and standard deviation for male, female, and combined values were calculated for each of the coagulation parameters. Pairwise comparisons using the students T-test were performed using Excel. Significance was determined if the p-value is less than 0.05.
# TNFα = TNFα ELISA in rat colitis model; assay type: in vivo; conditions: for tissue resident TNFα: colon tissue; for reduction in TNFα: vaccinated animals
# Experimental: (§4) Rats were vaccinated with a human sTNFR2 peptide, DFALPVEKPLCLOR (SEQ ID NO: 18), targeting the human sTNFR2 peptide. The rats were injected with 25 μg of the peptide subcutaneously with 25 μg Alum as adjuvant in PBS 10 days before initiating colitis. The studies were performed in accordance with the recommendations of the Animal Care and Use Committee of Tbilisi State Medical University. Briefly, the colitis was induced by introduction of 4% acetic acid at 24-hour intervals for three days into the colon under light anesthesia (50 mg/kg ketamine HCl and 5 mg/kg xylaxine). Injections were intrarectal through 2 mm diameter, 6-8 cm long polyethylene catheter to deliver 1 mL solution. See Cagin et al., Exp. Ther. Med. 12 (5): 2958-2964 (2016).
# (§5) TNFα and IL-6 cytokines were measured with ELISA kits according to the manufacturer's instructions (Invitrogen). The ELISA plates were developed with tetramethylbenzidine (TMB) substrate and absorbance was read at 450 nm using an ELx808 Ultra Microplate Reader (BioTek Instruments GmbH, Lucerne, Switzerland). […] Reduction in TNFα is consistent with loss of sTNFR2 binding.
# (§6) All values reported are mean and standard error of the mean. Group comparisons are either two-tailed t-test or ANOVA calculated using Excel.
# thrombus = experiment: Inferior vena cava ligation thrombus, wet weight; assay type: in vivo, Lewis rats; conditions: for Thrombus (wet weight): 4 hours after ligation, saline 0.015 ± 0.001
# Experimental: as §1, §2, §3
# [2] = tested on: Rat Colitis Model of Ulcerative Colitis; experiment: Rat colitis model of ulcerative colitis: visual and gross observations; assay type: in vivo
# Experimental: as §4
# The study design included 4 treatment groups:
# Group B: alum only 10 day prior, followed by colitis
# Group C: sTNFR2 peptide (SEQ ID NO: 18)+alum 10 day prior, followed by colitis
# Group D: no vaccine and no colitis
# IL-6 = IL-6 ELISA in rat colitis model; assay type: in vivo; conditions: for tissue resident IL-6: colon tissue
# Experimental: as §4, §5, §6
# rat colon tissue = experiment: Colon histology, rat colitis model; assay type: in vivo; conditions: for colon micrographs (H&E, Masson's trichrome): tissue loss and inflammation: administered 10 days prior to initiating colitis, result in words, listed as sTNR2 peptide
# Experimental: as §4
# Colon samples were fixed in 10% neutral buffered formalin for 24 hours at room temperature and embedded in paraffin. Tissue sections, 5 μm thick, were stained with hematoxylin and eosin (H&E), Masson's trichrome, and Periodic Acid-Schiff (PAS) according to the manufacturer's protocols. Histological evaluation of colons were assigned scores, (a score of 1 is normal and a score of 4 is severe pathology) for the number of animals with pathology >2, average pathology score, pathology distribution, and average inflammatory score (Table 7).
# [3] = tested on: regulatory T cells (Tregs); experiment: FoxP3 immunohistochemistry of colon, rat ulcerative colitis model; assay type: in vivo; conditions: 75 μg peptide and alum adjuvant one week prior to colitis; colon collected 8 days after initiation; vs unvaccinated
# Experimental: These studies were performed in accordance with the recommendations of the Animal Care and Use Committee of Tbilisi State Medical University. Colitis was initiated following introduction of 4% acetic acid at 24-hour intervals for three days into colon under light anesthesia (50 mg/kg ketamine HCl and 5 mg/kg xylaxine). Injections were intrarectal through 2 mm diameter, 6-8 cm long polyethylene catheter to deliver 1 mL solution.
# Colon samples were fixed in 10% neutral buffered formalin for 24 hours at room temperature and embedded in paraffin. Tissue sections 5 μm thick were stained with hematoxylin and eosin (H&E), Masson's trichrome, and Periodic Acid-Schiff stain (PAS) according to the manufacturer's protocols. The immunohistochemistry utilized a FoxP3 rabbit monoclonal antibody, ab215206, obtained from Abcam (Boston, MA) followed by a goat anti-rabbit secondary antibody conjugated with peroxidase.
# [4] = circulating blood, vaccinated vs control animals, result in words
# [5] = result in words, listed as AtheroVax
# [6] = score of 1 is normal, 4 is severe pathology, colitis only group 4
substance,measurement,setting,value
DFALPVE/KPLCLQR (DFALPVEKPLCLQR; not fully specified; listed as Homo sapiens) [AtheroVax peptide (SEQ ID NO: 18)],fibrinogen,[1],elevation
same,prothrombin times,[1],increased
same,thrombin time,[1],decreased
same,TNFα (mean ± SEM),"TNFα; ELISA, rat colitis model, injection 10 days before colitis, colitis only group 29.20 ± 0.65",1.12 ± 0.13
same,circulating levels of TNFα,TNFα; [4],significantly lower
same,tissue resident TNFα,TNFα; result in words,significantly lower
same,tissue resident TNFα,TNFα; [5],significant reductions
same,reduction in TNFα,TNFα; result in words,significant reductions
same,reduction in TNFα,"TNFα; result in words, listed as sTNFR2 peptide (SEQ ID NO: 18)+alum",significant reduction
same,Thrombus (wet weight),"thrombus; Grp. 2, 25 μg peptide + adjuvant days 0 and 14",0.011±0.001 grams
same,Thrombus (wet weight),"thrombus; Grp. 3, 75 μg peptide + adjuvant days 0 and 14",0.007±0.001 grams
same,thrombus weight,"thrombus; across doses, treatment prior to initiation of thrombosis, result in words",dose dependent smaller
same,elevations in body temperature,"[2]; rats, 25 μg peptide with 25 μg Alum 10 days before colitis",significantly prevented
same,loss of body weight,"[2]; rats, 25 μg peptide with 25 μg Alum 10 days before colitis, visual observations",significantly prevented
same,"gross colon observations (hyperemic, edematous, thickened, sharply increased volume)","[2]; rats, peptide + alum 10 days before colitis, compared with Group A (unvaccinated)",not associated
same,Bleeding,"[2]; rats, subcutaneous injection 10 days before 4% acetic acid colitis, peptide 25 μg with 25 μg Alum",Hemoccult Negative
same,Stool,"[2]; rats, subcutaneous injection 10 days before 4% acetic acid colitis, peptide 25 μg with 25 μg Alum, listed as sTNFR2 peptide (SEQ ID NO: 18)+alum",Normal
same,Stool,"[2]; rats, subcutaneous injection 10 days before 4% acetic acid colitis, peptide 25 μg with 25 μg Alum, listed as sTNR2 peptide (SEQ ID NO: 18)+alum adjuvant",normal stools
same,integrity of the colon and outcomes in the rat colitis model,"[2]; vaccinated vs control animals, result in words",preserved integrity oof the colon and improved outcomes
same,IL-6 (mean ± SEM),"IL-6; ELISA, rat colitis model, injection 10 days before colitis, colitis only group 6.46 ± 0.22",1.76 ± 0.13
same,circulating levels of IL-6,IL-6; [4],significantly lower
same,tissue resident IL-6,IL-6; result in words,significantly lower
same,tissue resident IL-6,IL-6; [5],significant reductions
same,reduction in IL-6,"IL-6; vaccinated animals, result in words",significant reductions
same,"colon micrographs (H&E, Masson's trichrome): tissue loss and inflammation",rat colon tissue,significant protection against inflammation
same,"colon micrographs (H&E, Masson's trichrome): tissue loss and inflammation",rat colon tissue; (SEQ ID NO: 18) and alum adjuvant,significant protective effect
same,Number animals with pathology >2 (1-5),"rat colon tissue; rat colitis model, colon histology",5
same,Average Inflammatory Score (1-4),rat colon tissue; [6],2
same,Average Pathology Score (1-4),rat colon tissue; [6],1
same,Pathology Distribution (1-4),rat colon tissue; [6],2
same,intensity of FoxP3 (Treg) staining in colon,[3],less intense; also recorded: do not stain as intensely
same,number of FoxP3 positive cells in colon,[3],fewer cells; also recorded: reduced; also recorded: lower frequencies
